From PubChem BioAssay AID179 (DTP/NCI, 2004)
Active and inactive are the calls of the source.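 The calls were made as follows: active = compounds giving half or more protection of infected cells from virus-caused growth loss, again on retest; inactive = the rest.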

Test system: CEM cells HIV-1 protection, formazan growth assay
Experiment: NCI AIDS Antiviral Assay
Settings: for IC50: measured here: growth of uninfected CEM cells
How it was run: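 Human CEM cells, uninfected and HIV-1-infected, received five drug concentrations, and growth was read by soluble formazan assay. Compounds giving at least 50% protection were retested; reproducible 100% protection defined confirmed active.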

Compound | EC50 | IC50 | outcome
Nc1cn(Cc2ccccc2)c2nc(/C=C3/C=CC=CC3=O)c(O)n12 | > 200 µM | > 200 µM | 
CC(CCC(=O)O)CCC(=O)O | > 1450 µM | > 1450 µM | 
Nc1ccc(CCCCc2ccc(S(=O)(=O)F)cc2Cl)c(Cl)c1 | > 200 µM | 21.9 µM | 
NC(Cc1ccc[se]1)C(=O)O (stereo not drawn) | > 200 µM | > 200 µM | 
N#Cc1c(-c2ccc([N+](=O)[O-])cc2)c(=O)oc2cc(O)ccc12 | > 100 µM | 74.1 µM | 
CC1Nc2c(ccc3ncccc23)C(=O)N1Nc1ccccc1 (stereo not drawn) | > 83.2 µM | 60.3 µM | 
Cc1cn(C2CC(O)C(CO)(C(F)(F)F)O2)c(=O)[nH]c1=O (stereo not drawn) | > 200 µM | > 200 µM | 
Cc1ccc(C(=O)/C=C/c2ccc3c(c2)OCO3)cc1 | > 19.5 µM | > 19.5 µM | 
COc1ccc(/C=N/NC(=S)Nc2ccccc2)cc1 | > 200 µM | > 200 µM | 
O=C(O)c1c(O)ccc(N=Nc2ccc(N=Nc3ccc4c(S(=O)(=O)O)cccc4c3O)c3ccccc23)c1O | > 100 µM | > 100 µM | 
COC(=O)[C@@H](NS(=O)(=O)CC12CCC(CC1)C2(C)C)C(C)(C)C | > 200 µM | > 200 µM | 
N[C@@H](CSSCCO)C(=O)O | > 200 µM | > 200 µM | 
O=C(NCCCN1CCN(CCCNC(=O)c2cnc3ccccc3n2)CC1)c1cnc2ccccc2n1 | > 10 µM | > 10 µM | 
COc1ccc2ccccc2c1C1=NC(C)(C)CO1 | > 977 µM | 479 µM | 
CC[N+]1(C)CCC(O)(/C=C/c2ccc(Cl)c(Cl)c2)C(C(=O)/C=C/c2ccc(Cl)c(Cl)c2)C1 (stereo not drawn) | > 200 µM | 3.8 µM | 
C#C/C=C\CCCC/C=C\C#CC#CCCCC#CC#C[C@H](COS(=O)(=O)O)OS(=O)(=O)O | 30.9 µM | > 200 µM | 
CCSc1cccc(C(=O)O)c1 | > 513 µM | > 513 µM | 
C/C(N=NS(=O)(=O)c1ccc(C)cc1)=C1\C=CC=CN1O |  |  | inactive
Cc1ccc(S(=O)(=O)NCCCSCCN)cc1 | > 631 µM | 562 µM | 
CC(=O)OC[C@]1(C)CCCC2(C)C1CCC1C=C(C)[C@H]3CCC12C3 (stereo partly drawn) | > 107 µM | > 107 µM | 
CCCCCCCCCCCCOCC1(COCCCCCCCCCCCC)COC(c2ccc(N)cc2)OC1 | > 200 µM | > 200 µM | 
C[Si](C)(C)OC1(C#N)C2C3CC4C2C(=O)C2C4C3C21 (stereo not drawn) |  |  | inactive

Compound | EC50 | IC50 | outcome
COc1ccc(-c2cc(=O)c3c(O)c(O)c(OC)cc3o2)cc1O | > 550 µM | 240 µM | 
Fc1c(F)c(-c2c(F)c(F)c(S)c(F)c2F)c(F)c(F)c1S |  |  | inactive
CCCN(CCCC(NC(C)=O)C(=O)NCc1ccccc1)C(=O)N(C)N=O (stereo not drawn) | > 174 µM | > 174 µM | 
O=C1CCC(=O)N1C(c1ccccc1)(c1ccccc1)c1ccccc1 | > 200 µM | > 200 µM | 
Cc1cc2c(cc1-c1cc3c(cc1C)C(C(C)C)=C(O)C(=O)/C3=C\Nc1c3ccccc3nc3ccccc13)/C(=C/Nc1c3ccccc3nc3ccccc13)C(=O)C(O)=C2C(C)C | > 100 µM | 1.74 µM | 
CCOC(=O)CC(NC(=O)c1[nH]cnc1/N=N/N(C)C)C(=O)OCC (stereo not drawn) | > 708 µM | > 708 µM | 
Cc1cc2c(C(C)C)c(O)c(O)c3coc(/c1=c1/c(C)cc4c(C(C)C)c(=O)c(=O)c5coc1c45)c32 | > 53.7 µM | 8.91 µM | 
CCCCCCN(C(=O)Oc1ccccc1)C(C#N)c1ccccc1 (stereo not drawn) | > 200 µM | > 200 µM | 
CCN(CC)C(=O)O/N=C/c1ccccc1 | > 200 µM | > 200 µM | 
Clc1ccc(-c2cc(=[N+]3CC[N+](=c4cc(-c5ccc(Cl)cc5)ss4)CC3)ss2)cc1 | 6.31 µM | 129 µM | 
CCOC(=O)C1(C)CCc2sc(N)c(C#N)c21 (stereo not drawn) | 83.2 µM | 158 µM | 
O=C1NC2(CCCCC2)C2CCCCC(O)C12 (stereo not drawn) |  |  | inactive
C=CC1CC[N-]CC1.[Cl][Cu][Cl] |  |  | inactive
CN(/N=C/c1cccs1)c1ccc([N+](=O)[O-])cc1[N+](=O)[O-] | > 200 µM | 107 µM | 
C1=Nc2ccccc2N=Cc2ccccc2NCCNc2ccccc21 | > 200 µM | > 200 µM | 
CCCS(=O)(=O)/C(=C(\c1ccc(Br)cc1)S(=O)(=O)CCC)c1ccc(Br)cc1 | > 2.63 µM | > 2.63 µM | 
C=C1CC2OC2(C(=O)O[C@H]2CCC3[C@@H]4CCC5=CC(=O)CC[C@]5(C)C4CC[C@@]32C)C1=O (stereo partly drawn) | > 200 µM | 7.24 µM | 
CC(=O)[CH-]C(C)=O.[CH2-]C.[CH2-]C.[Tl+3] | > 501 µM | > 501 µM | 
COc1ccc(-c2c(O)c3cccc(-c4ccccc4)c3oc2=O)cc1 | > 200 µM | 93.3 µM | 
CC1=C/C(=C(/c2ccccc2S(=O)(=O)O)c2cc(C)c(O)c(CN(CC(=O)O)CC(=O)O)c2C)C(C)=C(CN(CC(=O)O)CC(=O)O)C1=O |  |  | inactive
CCOC(=O)c1nc2ccccc2nc1Oc1ccc(OC)cc1 | > 200 µM | > 200 µM | 
COC(=O)c1cc(C(=CCCCCCBr)c2cc(Cl)c(OC)c(C(=O)OC)c2)cc(Cl)c1OC | > 4.79 µM | > 4.79 µM | 

Compound | EC50 | IC50 | outcome
c1ccc2[nH]c(SSSSc3nc4ccccc4[nH]3)nc2c1 | > 200 µM | > 200 µM | 
C#CCCCOc1ncccn1 | > 200 µM | > 200 µM | 
COc1cccc(/C=C2\S/C(=N/Nc3nc(-c4ccc([N+](=O)[O-])cc4)cs3)NC2=O)c1O | > 200 µM | 29.5 µM | 
Cc1ccc(S(=O)(=O)N/N=C2/CCC(C(C)(C)C)CC2Br)cc1 (stereo not drawn) | > 200 µM | 30.9 µM | 
CCOC(=O)Cc1[nH]c(C(=O)c2ccccc2)cc1C(=O)c1ccccc1 | > 200 µM | 30.2 µM | 
COc1ccc(NC(=S)N/N=C(\c2ccccc2)c2ccccn2)cc1 | > 0.2 µM | 0.0912 µM | 
CCC(C)c1c(NC(=O)c2ccccc2)o[nH]c1=O (stereo not drawn) | > 200 µM | > 200 µM | 
O=C(NC1C=Nc2ccccc2NC1=O)c1ccccc1Cl (stereo not drawn) | > 115 µM | 97.7 µM | 
C=C(c1cccn1S(=O)(=O)c1ccccc1)c1cccn1S(=O)(=O)c1ccccc1 | > 100 µM | 25.7 µM | 
Cc1cccc(NC(=O)Nc2cccc(Cl)c2Cl)n1 | > 200 µM | > 200 µM | 
N#Cc1cccc2c1Sc1ccccc1N2 | > 200 µM | 12 µM | 
N#CC1N(C(=O)c2ccc(F)cc2)c2ccccc2N1C(=O)c1ccc(F)cc1 | > 200 µM | 74.1 µM | 
O/N=C\C(=Nc1ccc(Cc2ccc(N=C(/C=N\O)NO)cc2)cc1)NO | > 355 µM | 39.8 µM | 
CCCCCCCCC#CCCCCCCCCCC[C@@H]1C(=O)O[C@H](C)[C@@H]1O (tested in a mixture with another compound) | > 200 µM | 35.5 µM | 
CCOC(=O)c1sc(C(=O)O)cc1-c1cccs1 | 234 µM | 501 µM | 
COc1cc(O)c(C(=O)/C=C/c2ccccc2)c(O)c1C1C=C(C)CCC1C(C)C (stereo not drawn) |  |  | inactive
CCSC1=[N+](SCC)CCCS1 | > 708 µM | 269 µM | 
CCCCCC(C)[P+](c1ccccc1)(c1ccccc1)c1ccccc1 (stereo not drawn) | > 200 µM | 0.955 µM | 
O=C1Nc2cc(Cl)ccc2C(=O)N2CCC[C@@H]12 | > 200 µM | > 200 µM | 
O=c1/c(=C/c2ccc3c(c2)OCO3)sc2nnc(-c3ccco3)n12 | > 55 µM | > 55 µM | 
CC(C)N(C(=O)C12C3(C(=O)C(C)(C)C)C4C5(C#N)C3C1(C(=O)C(C)(C)C)C5C42C(=O)C(C)(C)C)C(C)C (stereo not drawn) | > 151 µM | > 151 µM | 
O=C1C2CCCC3CCCC(C(=O)N1O)C32 (stereo not drawn) | > 200 µM | 39.8 µM | 

Compound | EC50 | IC50 | outcome
O=C(Cc1ccccc1)N/N=C(/c1nc2ccc([N+](=O)[O-])cc2[nH]c1=O)C(O)c1ccco1 (stereo not drawn) | > 209 µM | > 209 µM | 
COc1cccc(C(C#N)NC23CC4CC(CC(C4)C2)C3)c1 (stereo not drawn) |  |  | inactive
COc1ccc(/C=C2N=C(/C=C/c3ccccc3)OC\2=O)cc1OC | 11 µM | 97.7 µM | 
COC(=O)Cc1ccc(COC(=O)c2cc(C(=CCC[C@H]3CC[C@@]4(C)[C@@H](CC[C@@H]5[C@@H]4CC[C@]4(C)[C@@H]([C@H](C)CCCC(C)C)CC[C@@H]54)C3)c3cc(Cl)c(OCc4ccc(CC(=O)OC)cc4)c(C(=O)OCc4ccc(CC(=O)OC)cc4)c3)cc(Cl)c2OCc2ccc(CC(=O)OC)cc2)cc1 | > 200 µM | > 200 µM | 
COCCOCCOCCOCCOCCOCCOCCOCCOCCOCCOCCOCCOCCOCCOCCOCCOCC(=O)N(CCn1cnc2nc(NC(=O)c3ccccc3)[nH]c(=O)c21)CCn1cnc2nc(NC(=O)c3ccccc3)[nH]c(=O)c21 | 1.32 µM | 47.9 µM | 
N=C(N)N1CCNc2ccccc2C1 |  |  | inactive
COc1ccc(C2Oc3ccc(Cl)cc3C=C2[N+](=O)[O-])cc1 (stereo not drawn) | > 200 µM | 0.447 µM | 
Cc1nc(-c2cc3ccccc3oc2=O)cs1 |  |  | inactive
COc1ccc(C(=O)C(C(=O)C(=O)Nc2nccs2)c2ccc(OC)cc2)cc1 (stereo not drawn) | > 63.1 µM | > 63.1 µM | 
CCOC(=O)C1(C(=O)OCC)OC(C)=NC1(C(=O)OC)C(=O)OC | > 200 µM | > 200 µM | 
CC(C)=Nn1cnc2c1NC(C)(C)N=C2C(N)=O | > 200 µM | > 200 µM | 
C[N+]1=C2[B-](C(C)(C)C)=[N+](C(C)(C)C)[B-]2(C(C)(C)C)[N+](C)=C2[B-](C(C)(C)C)=[N+](C(C)(C)C)[B-]21C(C)(C)C (stereo not drawn) | > 50.1 µM | > 50.1 µM | 
CCOC(=O)C/C(N)=C(\C#N)C(=O)OCC |  |  | inactive
CCC1=C(CC2NCCc3ccccc32)CC2c3cc(OC)c(OC)cc3CCN2C1 (stereo not drawn) |  |  | inactive
CCCN(C)C(=O)COc1cc2c(O)c3c(O)c(C)c4c(c13)C(=O)C(C)(O/C=C/C(OC)C(C)C(OC(C)=O)C(C)C(O)C(C)C(O)C(C)/C=C/C=C(\C)C(=O)N2)O4 (stereo not drawn) | > 200 µM | 18.6 µM | 
COC1OC(CO)C2OC12 (stereo not drawn) | > 200 µM | > 200 µM | 
O=C1c2c(c3c4ccccc4n(COCCO)c3c3[nH]c4ccccc4c23)C(=O)N1Cc1ccccc1 | > 15.8 µM | 6.92 µM | 
Cc1nc(N)c(N2CCN(Cc3ccccc3)CC2)c(=O)[nH]1 | > 200 µM | > 200 µM | 
CCOC(=O)/C=C/c1ccccc1Cl | > 33.9 µM | > 33.9 µM | 
